Assay [1] concerns the target T1, rat brain monoamine oxidase-A (Rattus norvegicus, UniProt P21396).
T1 construct: appropriately diluted homogenates of rat brain or liver; from tissue; host or cells: rat brain or liver homogenate
T1 sequence (P21396 1-526): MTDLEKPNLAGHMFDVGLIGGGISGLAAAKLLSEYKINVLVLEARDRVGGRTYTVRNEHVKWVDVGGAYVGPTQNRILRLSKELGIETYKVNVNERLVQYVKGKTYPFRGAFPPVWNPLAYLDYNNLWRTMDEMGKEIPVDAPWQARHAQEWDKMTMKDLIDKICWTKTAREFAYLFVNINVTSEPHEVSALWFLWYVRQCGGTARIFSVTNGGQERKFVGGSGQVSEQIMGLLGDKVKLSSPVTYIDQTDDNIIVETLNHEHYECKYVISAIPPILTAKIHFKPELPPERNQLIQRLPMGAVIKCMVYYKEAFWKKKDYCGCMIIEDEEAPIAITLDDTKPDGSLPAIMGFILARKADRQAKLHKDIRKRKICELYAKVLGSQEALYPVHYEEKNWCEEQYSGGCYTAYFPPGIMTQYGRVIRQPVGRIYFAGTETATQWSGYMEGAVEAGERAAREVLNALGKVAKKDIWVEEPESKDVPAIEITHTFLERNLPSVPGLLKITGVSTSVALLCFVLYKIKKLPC
The assay can be described thus: Monoamine oxidase-A inhibiting activity in vitro (radiochemical, 5-hydroxytryptamine substrate, rat brain homogenate). The assay is classed as biochemical. As to conditions: for inhibition at 100 µM: 1 × 10^-4 M; for inhibition at 10 µM: 1 × 10^-5 M; for inhibition at 1 µM: 1 × 10^-6 M; for inhibition at 0.1 µM: 1 × 10^-7 M; for inhibition at 0.01 µM: 1 × 10^-8 M. On the procedure: Radiolabelled 5-hydroxytryptamine was used as the substrate for monoamine oxidase-A. Various concentrations of the compounds were incubated in appropriately diluted homogenates of rat brain or liver in a 0.2 M potassium phosphate buffer. Incubations proceeded at 37° C. for 10 minutes. Incubation was terminated by the addition of acid and the radiolabelled product (5-hydroxyindoleacetic acid) was extracted and quantified by liquid scintillation counting procedures. Incubations were done in triplicate and incubations containing phenelzine were included for comparison. The percent inhibition of monoamine oxidase-A activity compared to controls without the compounds of the present invention was calculated.

Assay [2] addresses T2, rat brain monoamine oxidase-B (Rattus norvegicus, UniProt P19643).
T2 construct: appropriately diluted homogenates of rat brain or liver; from tissue; host or cells: rat brain or liver homogenate
T2 sequence (P19643 1-520): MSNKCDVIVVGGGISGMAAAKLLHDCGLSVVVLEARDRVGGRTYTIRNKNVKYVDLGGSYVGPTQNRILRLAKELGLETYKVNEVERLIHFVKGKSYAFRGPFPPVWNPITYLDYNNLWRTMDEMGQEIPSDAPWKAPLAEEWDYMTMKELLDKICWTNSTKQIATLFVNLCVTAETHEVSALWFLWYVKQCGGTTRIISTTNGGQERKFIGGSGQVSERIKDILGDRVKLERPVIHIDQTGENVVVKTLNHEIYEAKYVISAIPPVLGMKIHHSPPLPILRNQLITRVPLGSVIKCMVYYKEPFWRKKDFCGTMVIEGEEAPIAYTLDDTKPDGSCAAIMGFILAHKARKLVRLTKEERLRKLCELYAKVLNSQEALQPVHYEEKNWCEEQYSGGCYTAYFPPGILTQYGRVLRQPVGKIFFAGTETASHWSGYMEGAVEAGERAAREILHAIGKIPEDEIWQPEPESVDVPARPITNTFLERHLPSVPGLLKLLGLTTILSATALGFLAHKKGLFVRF
Kind of assay: Monoamine oxidase-B inhibiting activity in vitro (radiochemical, β-phenylethylamine substrate, rat brain homogenate). The assay is classed as biochemical. As to conditions: for inhibition at 100 µM: 1 × 10^-4 M; for inhibition at 10 µM: 1 × 10^-5 M; for inhibition at 1 µM: 1 × 10^-6 M; for inhibition at 0.1 µM: 1 × 10^-7 M; for inhibition at 0.01 µM: 1 × 10^-8 M. As for the experimental part: Radiolabelled β-phenylethylamine was employed as a substrate for monoamine oxidase-B. Various concentrations of the compounds of interest were incubated in appropriately diluted homogenates of rat brain or liver in a 0.2 M potassium phosphate buffer. Incubations proceeded at 37° C. for 10 minutes. Incubation was terminated by the addition of acid and the radiolabelled product (phenylacetaldehyde and phenylacetic acid) was extracted and quantified by liquid scintillation counting procedures. Incubations were done in triplicate and incubations containing phenelzine were included for comparison. The percent inhibition of monoamine oxidase-B activity compared to controls containing no drug was calculated.

The test system of assay [3] is rat brain and liver monoamine oxidase-A. The assay can be described thus: Monoamine oxidase-A inhibiting activity ex vivo. The assay is classed as in vivo. As to conditions: 5.75 μmol/kg, 5 hr, i.p. in 10% DMSO. On the procedure: (§1) Radiolabelled 5-hydroxytryptamine was used as a substrate for monoamine oxidase-A. The compounds of interest were either injected intraperitonealy in DMSO or administered by gavage in water for various periods. The animals were killed by decapitation and the brains and livers immediately removed and frozen until assayed for monoamine oxidase-A activity. Tissues were homogenized and appropriately diluted in buffer prior to incubation. Incubations proceeded at 37° C. for 10 minutes. Incubation was terminated by the addition of acid and the radiolabelled product (5-hydroxyindoleacetaldehyde and 5-hydroxyindoleacetic acid) was extracted and quantified by liquid scintillation counting procedures. Incubations were done in triplicate and incubations containing phenelzine were included for comparison. The percent inhibition of monoamine oxidase-A activity compared to controls containing no drug was calculated.
Values are the mean ± the standard error based on (n) determinations.
Oral doses were administered as 75 μmol/kg on day 1, 75 μmol/kg on
day 2 and the animals were killed 5 hours later.

Assay [4] has as its system DSP-4 induced noradrenaline depletion in mouse hippocampus. The assay can be described thus: Prevention of DSP-4 induced noradrenaline depletion in mouse hippocampus. Format: in vivo. On the procedure:
(§2) Neuroprotectant activity was evaluated by examining the prevention of DSP-4 induced noradrenaline depletion in mouse hippocampus as described in Yu, P. H., Davis, B. A., Fang, J. and Boulton, A. A. (1994), Neuroprotective effect of some monoamine oxidase-B inhibitors against DSP-4 induced noradrenaline depletion in the mouse hippocampus, J. Neurochem. 63: 1820-1828. Briefly, mice were injected (i.p.) with either 20% DMSO or potential neuroprotectants (10 mg/kg in 20% DMSO). One hour later they were injected with either water or DSP-4 (50 mg/kg in water). One week later the mice were killed and the brains removed and the hippocampus dissected out. The hippocampus was frozen and saved for estimation of noradrenaline and other aminergic neurotransmitters and their metabolites as in Sloley, B. D. and Goldberg J. I. (1991), Determination of γ-glutamyl conjugates of monoamines by means of high-performance liquid chromatography with electrochemical detection and application to gastropod tissues, J. Chromatog. 567: 49-56. The rest of the brain was frozen and retained for estimation of monoamine oxidase activities ex vivo as described earlier.

A further assay deals with MAO-A. The assay can be described thus: MAO-A inhibition ex vivo in DSP-4 treated mice (brain). More on the design: species or system mouse. On the procedure:
as §1, with “The compounds were evaluated for ex vivo monoamine oxidase-A inhibiting activity using the radiochemical procedure of Lyles, G. A. and Callingham, B. A. (1982). […] Biochem. Pharmacol. 31: 1417-1424. Radiolabelled” for “Radiolabelled”
as §2

Assay [5] relates to NA, DA, 5-HT, 5-HIAA and DOPAC concentrations in rat hypothalamus. Kind of assay: Rat hypothalamus amine and amine metabolite concentrations. The assay is classed as in vivo. As to conditions: 5.75 μmol/kg, 5 hr, ip. On the procedure:
The effects of various doses of CVT-P040 on the concentrations of hypothalamus amine neurotransmitters and their metabolites were evaluated by examining concentrations of noradrenaline (NA), dopamine (DA), 5-hydroxytryptamine (5-HT), 5-hydroxyindoleacetic acid (5-HIAA) and 3,4-dihydroxyphenylacetic acid (DOPAC) in rat hypothalami 5 hours after the injection of the drug. […] The brains were removed and divided in half. One half of the brain was frozen in isopentane on dry ice and retained for estimates of amino acid neurotransmitter concentrations. The other half had the hypothalamus removed and frozen on dry ice for later estimates of amines and their metabolites according to the method of Sloley, B. D. and Goldberg J. I. (1991), Determination of γ-glutamyl conjugates of monoamines by means of high-performance liquid chromatography with electrochemical detection and application to gastropod tissues, J. Chromatog. 567: 49-56. The rest of the brain was frozen on dry ice for ex vivo examination of MAO activity as described earlier.

In assay [6] the test system is DSP-4 induced noradrenaline depletion in mouse hippocampus. Kind of assay: Prevention of DSP-4 induced noradrenaline depletion in mouse hippocampus. The assay is classed as in vivo. As to conditions: 10 mg/kg then DSP-4 50 mg/kg; saline control experiment.
The subject of another assay is PC12 cells. The assay can be described thus: PC12 neurite outgrowth (neurotrophic effect). As to conditions: for Index of Neurite Outgrowth: seven days. The assay is classed as cell-based. On the procedure: The effects of CVT-P040 on neurite outgrowth in cell culture were investigated using an established PC 12 pheochromocytoma cell culture. The effects of CVT-P040 and nerve growth factor on neurite outgrowth were estimated using the method described by Rydel, R. E and Greene, L. A.(1987), Acidic and basic fibroblast growth factors promote stable neurite outgrowth and basic neuronal differentiation in cultures of PC12 cells, J. Neuroscience 7: 3639-3653. Briefly, PC12 cells were seeded and maintained in 100 cm^2 tissue culture dishes at 37° C. in RPMI1640 media containing 1% antibiotics, 10% heat inactivated horse serum and 5% fetal bovine serum in a water saturated atmosphere of 95% air and 5% CO2. The cells were mechanically dislodged and plated into 35 mm collagen-coated tissue culture dishes containing a total of 2.0 ml complete medium at a density of […]. The medium was changed 3 times/week. Cellular responses to CVT-P040 and nerve growth factor (NGF) were determined by counting the number of PC12 cells containing processes. Photographs of the cells were taken after seven days treatment. Two cell fields were chosen in each dish and the photographs developed and printed. […] The neurite index was calculated using the following formula; Neurite Index=total neurite score (ΣS)/ total cell number (ΣN); ΣS=S1×N+S2×N +S3×N+S4×N, where N is the number of cells in each cell field.

Where [7] appears, read: 10 mg/kg i.p. then DSP-4 50 mg/kg, 20% DMSO control experiment.

As usually defined, the inhibition is the change of the read-out against control, counted positive when it falls.

Take `C#CCN(N)c1ccccc1` [CVT-P047, N^1 -propargylphenylhydrazine]: in assay [1], the inhibition at 100 µM turned out to be 99.7%, the inhibition at 10 µM came out at 78.2%, the inhibition at 1 µM is 15.9% and the inhibition at 0.1 µM is -3.8%. In addition, the inhibition at 0.01 µM in assay [1] is -2.9%. For the same compound, in assay [2], the inhibition at 100 µM was determined as 100%, the inhibition at 10 µM turned out to be 94.3%, the inhibition at 1 µM was determined as 65.1% and the inhibition at 0.1 µM amounted to 17.9%. Also, the inhibition at 0.01 µM in assay [2] amounted to 0.1%.
Consider `C#CCN(C)[C@H](C)Cc1ccccc1` [(-)-deprenyl, reference compound], for which the “% Inhibition Monoamine Oxidase-A” value in assay [3] (brain) was -0.6 ± 1.1%. Also, the “% Inhibition Monoamine Oxidase-A” value in assay [3] (liver) was 8.0 ± 2.2%. For the same compound, in assay [4] (setting [7]), the “% NA Restoration” value is recorded as 86.6% and the NA is recorded as 315 ± 34 ng/g. For the same compound, in assay [4] (10 mg/kg, mouse hippocampus, in words), the “protection against DSP-4 induced noradrenaline depletion / neuroprotective effect” value is listed as “significantly protected against DSP-4 induced noradrenaline depletion”. Further, in the assay with MAO-A (setting [7]), the “MAO-A % Inhibition” value is given as 18.8 ± 6.0%. Moreover, in the assay on MAO-A (10 mg/kg then DSP-4 50 mg/kg, saline control experiment), the “MAO-A % Inhibition” value was determined as 9.9 ± 6.0%. In assay [5], the 5-HIAA stood at 407 ± 22 ng/g, the 5-HT was found to be 821 ± 44 ng/g, the DA came to 541 ± 44 ng/g and the DOPAC came to 87 ng/g. For the same compound, the NA in assay [5] worked out at 1510 ± 70 ng/g. In assay [6], the “% NA Restoration” value came to 73.1% and the NA worked out at 432 ± 13 ng/g.
As for `C#CCNNCCc1ccccc1` [CVT-P039, N^2 -propargylphenelzine], in assay [1], the inhibition at 100 µM was found to be 31.6% and the inhibition at 10 µM was -25.8%. Further, in assay [2], the inhibition at 100 µM is 20.9% and the inhibition at 10 µM is -0.2%.
As to `C#CCN(N)Cc1ccccc1` [CVT-P046, N^1 -propargylbenzylhydrazine], in assay [1], the inhibition at 100 µM was 100%, the inhibition at 10 µM was 99.4%, the inhibition at 1 µM turned out to be 49.4% and the inhibition at 0.1 µM came out at 18.5%. For the same compound, the inhibition at 0.01 µM in assay [1] was -5%. For the same compound, in assay [2], the inhibition at 100 µM stood at 100%, the inhibition at 10 µM was determined as 92.3%, the inhibition at 1 µM amounted to 86.2% and the inhibition at 0.1 µM came to 64.9%. Also, the inhibition at 0.01 µM in assay [2] is 18.6%.
In the case of NGF: nerve growth factor (NGF), the “Index of Neurite Outgrowth” value is listed as 0.58 ± 0.03 with PC12 cells (NGF 0.1 ng/ml), 0.79 ± 0.07 in the assay on PC12 cells (NGF 0.3 ng/ml) and 1.16 ± 0.06 in the assay with PC12 cells (NGF 1.0 ng/ml). Further, the “neurite outgrowth in PC12 cells” value with PC12 cells (NGF 0.1, 0.3 and 1.0 ng/ml, in words) is recorded as “increased neurite outgrowth in PC12 cells”.

(Values after patent US6060516A, “N^1 -propargylhydrazines, N^2 -propargylhydrazines and their analogs for the treatment of depression, anxiety and neurodegeneration” (CV Technologies, Inc., priority 1998, dated 2000).)
